Assay [1] addresses T1, human recombinant trypsin (rh-trypsin) (Homo sapiens, UniProt P07477).
T1 construct: purchased Wako Pure Chemical Industries, Ltd. 206-17171
Kind of assay: Trypsin inhibitory activity, human recombinant trypsin, BZiPAR fluorescent substrate. The following applies: 30 min at room temperature, read-out: r-h Trypsin inhibitory activity (IC50). The class given is biochemical. The protocol: (§1) 1. Confirmation of Trypsin Inhibitory Activity in Humans and Mice In the experiment, human recombinant trypsin (rh-trypsin; manufactured by Wako Pure Chemical Industries, Ltd.), cat. #206-17171) and mouse trypsin (m-trypsin; purified from the mouse small intestine contents by the present inventors) were used. The method for purifying m-trypsin from the contents of the mouse small intestine is shown below. The compound was dissolved in dimethyl sulfoxide (DMSO), and diluted to an arbitrary concentration (A). A was 100-fold diluted with a buffer (0.1 M Tris (pH 8.0), 0.15 M NaCl, 10 mM CaCl2, 0.05% Brij35) (B). The rh-trypsin was diluted with a buffer to 0.088 μg/mL, and for the m-trypsin, the purified fraction liquid was 50-fold diluted with the buffer (C). […] A BZiPAR solution (Rhodamine Reference Substrate) which is substrate for the trypsin enzyme was diluted with the buffer to […] (D). 5 μL of B, 5 μL of C, and 10 μL of D were added to a 384-well plate, and incubated at room temperature for 30 minutes. Fluorescent signals were detected at a maximum excitement (Ex)/fluorescent wavelength (Em)=497 nm/520 nm using a Tecan Safire Fluorometer. […] Based on the obtained inhibitory rates, the trypsin inhibitory activities (IC50 values, nM) were calculated from the non-linear regression.

The test system of assay [2] is T2, mouse trypsin (m-trypsin).
T2 construct: mouse trypsin (m-trypsin)
Kind of assay: Trypsin inhibitory activity, mouse trypsin purified from small intestine contents, BZiPAR fluorescent substrate. The settings on record: 30 min at room temperature. It counts as biochemical.
Description: 1. Confirmation of Trypsin Inhibitory Activity in Humans and Mice
In the experiment, human recombinant trypsin (rh-trypsin; manufactured by Wako Pure Chemical Industries, Ltd.), cat. #206-17171) and mouse trypsin (m-trypsin; purified from the mouse small intestine contents by the present inventors) were used. The method for purifying m-trypsin from the contents of the mouse small intestine is shown below.
The small intestine contents and the gastrointestinal tract obtained from 10 mice were homogenized in phosphate buffer saline (PBS) using Polytron, and subjected to centrifugation several times at 15,000×g for 10 minutes. The supernatant was mixed at 4° C. for 16 hours with a Benzamidine Sepharose 4 Fast Flow Resin (GE Healthcare: #17-5123-10). After washing the resin with PBS, m-trypsin was eluted with a glycine buffer (pH 3.0) to carry out purification. It was confirmed by Western blot analysis that the obtained purified fraction was recognized as an Anti-mouse Trypsin Antibody (Santa Cruz Biotechnology, Inc.: sc-67388). The method for measuring the trypsin inhibiting activity is shown below.
as §1, with “The” for “1. Confirmation of Trypsin Inhibitory Activity in Humans and Mice In the experiment, human recombinant trypsin (rh-trypsin; manufactured by Wako Pure Chemical Industries, Ltd.), cat. #206-17171) and mouse trypsin (m-trypsin; purified from the mouse small intestine contents by the present inventors) were used. The method for purifying m-trypsin from the contents of the mouse small intestine is shown below. The”

For the next assay, the system named is ICR mice. Kind of assay: Test of increase in fecal protein concentration using mice. It counts as in vivo, mouse. The following applies: 5 mg/kg oral, male ICR mice, feces collected 3 to 9 hours after feeding started, control group = 1; for response vs control in vivo at 5 mg/kg: Mus musculus, po, 9 h, read-out: Fecal protein, Folds (vs. control). How it is done: 2. Test of Increase in Fecal Protein Concentration Using Mice
For the experiment, 6-week old male ICR mice were used. The experiment was carried out in five mice per group. After fasting the mice for 15 hours, the control group was forcibly orally administered with a 0.5% methyl cellulose (MC) solution, and the test drug group was forcibly orally administered (5 mg/kg) with a solution or suspension obtained by dissolving or suspending the compound in the 0.5% MC solution. The fasting was stopped immediately thereafter, free feeding (CE-2) was started, and then the feces were collected from after 3 hours to after 9 hours, and weighed. All of the obtained feces were suspended in 6 mL of distilled water, and centrifuged at 1,940×g for 10 minutes. The protein concentration in the obtained supernatant was measured by a Bradford method, and the amount of the protein in 1 g of feces was calculated by dividing the protein concentration in the feces by the total weight of feces. Further, the efficacy was investigated from the ratio to the control group. For the compounds that were evaluated multiple times, the average values were calculated.
The results of the activities with an increase in Fecal Protein, assuming a value for the control group as 1, are shown in Table 2.

Counter-ions that a name gives are not always drawn.

Regarding `C[C@H](C(=O)O)N(Cc1csc(C(=O)O)c1)C(=O)CC1CCCc2cc(OC(=O)c3ccc(NC(=N)N)cc3)ccc21` (single isomer, unassigned) [Example 8, 4-({({(1R)-6-[(4-carbamimidamidobenzoyl)oxy]-1,2,3,4-tetrahydronaphthalen-1-yl}acetyl) [(1R)-1-carboxyethyl]amino}methyl)thiophene-2-carboxylic acid or an epimer at position 1 of the 1,2,3,4-tetrahydronaphthalene], the IC50 in assay [1] came to 0.43 nM; in assay [2] it was 0.57 nM. Further, in the assay with ICR mice, the “Fecal protein, Folds (vs. control)” value was determined as 1.90.

As to `N=C(N)Nc1ccc(C(=O)Oc2ccc3c(c2)CCCC3CC(=O)N(CC(=O)O)Cc2csc(C(=O)O)c2)cc1` (stereo not shown) [Example 27], the IC50 in assay [1] came out at 0.32 nM; in assay [2], 0.35 nM. In the assay with ICR mice, the response vs control in vivo at 5 mg/kg was determined as 198%.

Turning to `C[C@H](C(=O)O)N(Cc1csc(C(=O)O)c1)C(=O)C1CCc2cc(OC(=O)c3ccc(NC(=N)N)cc3)ccc2C1` (stereo partly shown) [Example 21], the IC50 in assay [1] is 0.38 nM; in assay [2], 0.52 nM. Besides, the response vs control in vivo at 5 mg/kg in the assay on ICR mice is 251%.

As to `N=C(N)Nc1ccc(C(=O)Oc2ccc3cc(C(=O)N(CC(=O)O)Cc4csc(C(=O)O)c4)ccc3c2)cc1` [Example 1, 4-{[{6-[(4-carbamimidamidobenzoyl)oxy]-2-naphthoyl}(carboxymethyl)amino]methyl}thiophene-2-carboxylic acid monohydrochloride], the IC50 in assay [1] was determined as 0.31 nM; in assay [2] it was 0.41 nM. Besides, in the assay on ICR mice, the response vs control in vivo at 5 mg/kg was determined as 200%.

With `N=C(N)Nc1ccc(C(=O)Oc2ccc3c(c2)CCCC3CC(=O)N(CC(=O)O)Cc2cccc(CC(=O)O)c2)cc1` (stereo not shown) [Example 41], the IC50 in assay [1] was 0.26 nM; in assay [2], 0.22 nM. In the assay with ICR mice, the response vs control in vivo at 5 mg/kg was determined as 201%.

Regarding `N=C(N)Nc1ccc(C(=O)Oc2ccc3c(c2)CCCC3CC(=O)N[C@@H](Cc2ccc(C(=O)O)cc2)C(=O)O)cc1` (stereo partly shown) [Example 36], the figures for the IC50 in assay [1] and in assay [2] were 0.26 nM and 0.28 nM, respectively. The response vs control in vivo at 5 mg/kg in the assay on ICR mice came out at 190%.

As to `N=C(N)Nc1ccc(C(=O)Oc2ccc3c(c2)CCC(C(=O)N(CC(=O)O)Cc2ccc4sc(C(=O)O)cc4c2)C3)cc1` (stereo not shown) [Example 24], the IC50 in assay [1] came to 0.23 nM; in assay [2], 0.24 nM. In addition, the response vs control in vivo at 5 mg/kg in the assay on ICR mice is 151%.

As to `N=C(N)Nc1ccc(C(=O)Oc2ccc3c(c2)CCCC3CC(=O)N(CC(=O)O)Cc2ccc(CC(=O)O)cc2)cc1` (stereo not shown) [Example 26], the IC50 is 0.33 nM in assay [1] and 0.34 nM in assay [2]. The response vs control in vivo at 5 mg/kg in the assay with ICR mice came to 170%.

As for `N=C(N)Nc1ccc(C(=O)Oc2ccc3c(c2)CCC(C(=O)N(CC(=O)O)[C@@H](Cc2ccccc2)C(=O)O)C3)cc1` (stereo partly shown) [Example 31], the IC50 was determined as 0.23 nM in assay [1] and 0.22 nM in assay [2]. The response vs control in vivo at 5 mg/kg in the assay with ICR mice worked out at 151%.

As to `N=C(N)Nc1ccc(C(=O)Oc2ccc3c(c2)CCC3CC(=O)N(CC(=O)O)Cc2cccc(C(=O)O)c2)cc1` (stereo not shown) [Example 11], the IC50 in assay [1] was 0.31 nM; in assay [2], 0.68 nM. Besides, the response vs control in vivo at 5 mg/kg in the assay with ICR mice turned out to be 263%.

`N=C(N)Nc1ccc(C(=O)Oc2ccc3c(C(=O)N[C@@H](Cc4ccc(C(=O)O)cc4)C(=O)O)cccc3c2)cc1` [Example 3, N-{6-[(4-carbamimidamidobenzoyl)oxy]-1-naphthoyl}-4-carboxy-L-phenylalanine monohydrochloride]: the IC50 in assay [1] is 0.21 nM; in assay [2] it was 0.22 nM. The response vs control in vivo at 5 mg/kg in the assay on ICR mice was 209%.

For the compound `N=C(N)Nc1ccc(C(=O)Oc2ccc3c(c2)CCC(C(=O)N(CC(=O)O)Cc2csc(C(=O)O)c2)C3)cc1` (stereo not shown) [Example 4, 4-{[({6-[(4-carbamimidamidobenzoyl)oxy]-1,2,3,4-tetrahydronaphthalen-2-yl}carbonyl)(carboxymethyl)amino]methyl}thiophene-2-carboxylic acid monohydrochloride], the results for the IC50 in assay [1] and in assay [2] were 0.43 nM and 0.61 nM, respectively. For the same compound, the response vs control in vivo at 5 mg/kg in the assay with ICR mice is 262%.

Consider `N=C(N)Nc1ccc(C(=O)Oc2ccc3cc(C(=O)N[C@@H](Cc4ccc(C(=O)O)cc4)C(=O)O)ccc3c2)cc1` [Example 37], for which the IC50 amounted to 0.24 nM in assay [1] and 0.18 nM in assay [2]. For the same compound, the response vs control in vivo at 5 mg/kg in the assay on ICR mice stood at 174%.

Take `N=C(N)Nc1ccc(C(=O)Oc2ccc3c(c2)CCC(C(=O)N(CCC(=O)O)Cc2csc(C(=O)O)c2)C3)cc1` (stereo not shown) [Example 45]: the figures for the IC50 in assay [1] and in assay [2] were 0.36 nM and 0.54 nM, respectively. Also, in the assay with ICR mice, the response vs control in vivo at 5 mg/kg is 138%.

Consider `C[C@H](C(=O)O)N(Cc1csc(C(=O)O)c1)C(=O)CC1CCc2cc(OC(=O)c3ccc(NC(=N)N)cc3)ccc21` (stereo partly shown) [Example 48], for which the IC50 in assay [1] was 0.36 nM; in assay [2] it was 0.44 nM. In the assay on ICR mice, the response vs control in vivo at 5 mg/kg stood at 179%.

For the compound `N=C(N)Nc1ccc(C(=O)Oc2ccc3c(c2)CCCC3CC(=O)N(CC(=O)O)[C@@H](Cc2ccccc2)C(=O)O)cc1` (stereo partly shown) [Example 22], the IC50 stood at 0.34 nM in assay [1] and 0.44 nM in assay [2]. In addition, the response vs control in vivo at 5 mg/kg with ICR mice was determined as 215%.

`N=C(N)Nc1ccc(C(=O)Oc2ccc3c(C(=O)N(CC(=O)O)Cc4ccc5sc(C(=O)O)cc5c4)csc3c2)cc1` [Example 32]: the values for the IC50 in assay [1] and in assay [2] were 0.15 nM and 0.14 nM, respectively. Besides, the response vs control in vivo at 5 mg/kg in the assay on ICR mice worked out at 190%.

For the compound `C[C@H](C(=O)O)N(Cc1csc(C(=O)O)c1)C(=O)CC1CCCc2cc(OC(=O)c3ccc(NC(=N)N)cc3)ccc21` (stereo partly shown) [Example 19], the figures for the IC50 in assay [1] and in assay [2] were 0.39 nM and 0.6 nM, respectively. In addition, the response vs control in vivo at 5 mg/kg in the assay on ICR mice amounted to 251%.

Take `Cl.N=C(N)Nc1ccc(C(=O)Oc2ccc3c(c2)CCCC3CC(=O)N(CC(=O)O)Cc2cccc(C(=O)O)c2)cc1` (single isomer, unassigned) [Example 6, 3-{[({(1R)-6-[(4-carbamimidamidobenzoyl)oxy]-1,2,3,4-tetrahydronaphthalen-1-yl}acetyl)(carboxymethyl)amino]methyl}benzoic acid or an enantiomer thereof]: the IC50 is 0.29 nM in assay [1] and 0.2 nM in assay [2]. In addition, the “Fecal protein, Folds (vs. control)” value in the assay with ICR mice was 1.84.

Take `C[C@H](C(=O)O)N(Cc1csc(C(=O)O)c1)C(=O)c1csc2cc(OC(=O)c3ccc(NC(=N)N)cc3)ccc12` [Example 29]: the IC50 in assay [1] is 0.26 nM; in assay [2], 0.23 nM. Moreover, in the assay on ICR mice, the response vs control in vivo at 5 mg/kg turned out to be 143%.

`N=C(N)Nc1ccc(C(=O)Oc2ccc3c(CC(=O)N(CC(=O)O)Cc4cccc(C(=O)O)c4)coc3c2)cc1` [Example 12]: the IC50 in assay [1] amounted to 1.5 nM; in assay [2], 1.7 nM.

As to `N=C(N)Nc1ccc(C(=O)Oc2ccc3c(c2)OCC3CC(=O)N(CC(=O)O)Cc2cccc(C(=O)O)c2)cc1` (stereo not shown) [Example 10], the IC50 in assay [1] came out at 1.2 nM; in assay [2], 1.4 nM.

What is called IC50 is the concentration needed to halve the response being measured.

Source of the values: US9969709B2, “Guanidinobenzoic acid ester compound” (Takeda Pharmaceutical Company Limited, priority 2013, dated 2018).
